Data: article PMC10863309 (Redox Biology, 2024)
Where “and” joins values, the source holds several entries; their conditions need not be identical. Equal values may be shown once. Read-outs that look alike come from different tables or passages of the source.

Legend:
BV2 cells = assay: MTT cell viability assay; assay type: cell-based, mouse
[1] = system: LPS-induced NO release of BV2 microglial cells; assay: Nitrite quantification; assay type: cell-based, mouse; conditions: 1 h pretreatment, LPS 800 ng/ml 24 h
[2] = Mus musculus, BV-2, read-out: Cell viability IC50

| Compound | IC50 (BV2 cells; [2]) | NO Inhibition (% of LPS) LPS/drugs (0.7 μM) [1] | NO Inhibition (% of LPS) LPS/drugs (1.5 μM) [1] | NO Inhibition (% of LPS) LPS/drugs (3 μM) ([1]; 3 μM) | NO Inhibition (% of LPS) LPS/drugs (12 μM) ([1]; 12 μM) | NO Inhibition (% of LPS) LPS/drugs (25 μM) ([1]; 25 μM) | NO Inhibition (% of LPS) LPS/drugs (50 μM) ([1]; 50 μM) | IC50 (BV2 cells; read-out: Cell viability IC50, BV2 microglial cells) |
| --- | --- | --- | --- | --- | --- | --- | --- | --- |
| CC[C@]12C=CCN3CC[C@]4(C(=C(C(=O)OC)C1)Nc1ccccc14)[C@@H]32 [Compound 7, tabersonine] | 16.1 ± 1.1 µM | 18.8 ± 7.0 % of LPS | 29.3 ± 3.1 % of LPS | 45.9 ± 2.4 % of LPS |  |  |  |  |
| C[C@@H]1C[C@H]2[C@@H]3CCC4=CC(=O)C=C[C@]4(C)[C@@]3(F)[C@@H](O)C[C@]2(C)[C@@]1(O)C(=O)CO [Dexamethasone, reference compound] | > 100 µM |  |  |  | 61.9 ± 4.7 % of LPS | 71.1 % of LPS and 71.1 ± 3.0 % of LPS | 75.1 ± 1.9 % of LPS |  |
| lochnericine [Compound 2] |  | 11.2 ± 2.0 % of LPS | 31.3 ± 3.2 % of LPS |  |  |  |  | 28.7 ± 1.2 µM |
